Where two headings read alike, the source gives them in different places.
Tests used:
human Gal-3 (hGal-3) = human Gal-3 (hGal-3) (Homo sapiens (Human), UniProt P17931); experiment: competitive binding assay: biotinylated hGal-3 binding to microplate-adsorbed asialofetuin (ASF)
Summary of the method: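 Peroxidase activity developed with ABTS measures the biotinylated hGal-3 remaining on the asialofetuin-coated surface after competition with test compounds. Incubation ran 3 h at 4 °C, followed by 1 h with streptavidin-peroxidase at 80 ng/mL.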

human Gal-1 (hGal-1) = human Gal-1 (hGal-1) (Homo sapiens (Human), UniProt P09382); experiment: competitive binding assay: biotinylated hGal-1 binding to microplate-adsorbed asialofetuin (ASF); settings: Table 15; read-out: IC50 (Galectin-1 inhibition)
Summary of the method: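 Biotinylated human Gal-1 (300-1000 ng/mL) competes with serially diluted compound for binding to ASF-coated plates, 3 h at 4° C. Bound protein detected with streptavidin-peroxidase and ABTS substrate (spectrophotometric). IC50 given as mean of several measurements.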

[1] = Table 5, read-out: IC50 (Gal-3 inhibition)
[2] = Table 9, 2-OMe-Gal inhibitors, read-out: IC50 (Gal-3 inhibition)
[3] = Table 11, read-out: IC50 (Gal-3 inhibition)
[4] = Gal-3 inhibition, binding of biotinylated hGal-3 to ASF, mean values, read-out: IC50

Sequence of human Gal-3 (hGal-3) (P17931 whole entry): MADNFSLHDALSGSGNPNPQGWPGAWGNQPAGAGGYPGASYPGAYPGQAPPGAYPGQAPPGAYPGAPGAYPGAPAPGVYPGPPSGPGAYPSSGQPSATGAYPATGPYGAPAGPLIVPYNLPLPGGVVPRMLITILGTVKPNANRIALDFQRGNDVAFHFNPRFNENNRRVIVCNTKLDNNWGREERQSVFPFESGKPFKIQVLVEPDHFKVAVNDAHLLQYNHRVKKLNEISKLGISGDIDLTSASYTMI
Sequence of human Gal-1 (hGal-1) (P09382 whole entry): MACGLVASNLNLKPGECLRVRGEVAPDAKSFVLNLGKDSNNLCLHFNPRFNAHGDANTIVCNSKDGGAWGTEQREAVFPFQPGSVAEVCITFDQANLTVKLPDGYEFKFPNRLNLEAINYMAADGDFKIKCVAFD

Row | Compound | IC50 (human Gal-1 (hGal-1)) [nM] | IC50 (human Gal-3 (hGal-3); [4]) [nM] | further results
1 | OC[C@H]1O[C@@H](SC(c2ccccc2C(F)(F)F)C2(O)CCC(F)(F)CC2)[C@H](O)[C@@H](n2cc(-c3cc(F)c(F)c(F)c3)nn2)[C@H]1O (stereo partly drawn) [Example 2.44.112., (2S,3R,4S,5R,6R)-2-(((4,4-Difluoro-1-hydroxycyclohexyl)(2-(trifluoromethyl)phenyl)methyl)thio)-6-(hydroxymethyl)-4-(4-(3,4,5-trifluorophenyl)-1H-1,2,3-triazol-1-yl)tetrahydro-2H-pyran-3,5-diol] | 950 | – | IC50 (human Gal-3 (hGal-3); [1]): 300 nM
2 | CO[C@@H]1[C@@H](n2cc(-c3cc(F)c(F)c(F)c3)nn2)[C@@H](O)[C@@H](CO)O[C@H]1S[C@H](c1ncccc1C(F)(F)F)C1(O)CCCCC1 [Example 2.39.125R.I., (2R,3R,4S,5R,6S)-6-(((R)-(1-Hydroxycyclohexyl)(3-(trifluoromethyl)pyridin-2-yl)methyl)thio)-2-(hydroxymethyl)-5-methoxy-4-(4-(3,4,5-trifluorophenyl)-1H-1,2,3-triazol-1-yl)tetrahydro-2H-pyran-3-ol] | 460 | – | IC50 (human Gal-3 (hGal-3); [2]): 90 nM
3 | CO[C@@H]1[C@@H](n2cc(-c3cc(F)c(F)c(F)c3)nn2)[C@@H](O)[C@@H](CO)O[C@H]1S[C@@H](c1nccc(Cl)c1C)C1(O)CCC(F)(F)CC1 [Example 2.44.141S.I., (2R,3R,4S,5R,6S)-6-(((S)-(4-Chloro-3-methylpyridin-2-yl)(4,4-difluoro-1-hydroxycyclohexyl)methyl)thio)-2-(hydroxymethyl)-5-methoxy-4-(4-(3,4,5-trifluorophenyl)-1H-1,2,3-triazol-1-yl)tetrahydro-2H-pyran-3-ol] | 10500 | – | IC50 (human Gal-3 (hGal-3); [3]): 3500 nM
4 | Cc1ccccc1[C@@H](S[C@@H]1O[C@H](CO)[C@H](O)[C@H](n2cc(-c3cc(F)c(F)c(F)c3)nn2)[C@H]1O)C1(O)CC(C)C1 (stereo partly drawn) [Example 2.36.102R., (2S,3R,4S,5R,6R)-2-(((1R)-(1-Hydroxy-3-methylcyclobutyl)(o-tolyl)methyl)thio)-6-(hydroxymethyl)-4-(4-(3,4,5-trifluorophenyl)-1H-1,2,3-triazol-1-yl)tetrahydro-2H-pyran-3,5-diol] | 3500 | – | IC50 (human Gal-3 (hGal-3); [1]): 440 nM
5 | OC[C@H]1O[C@@H](S[C@@H](c2ncccc2C(F)(F)F)C2(O)CCC(F)(F)CC2)[C@H](O)[C@@H](n2cc(-c3cc(F)c(F)c(F)c3)nn2)[C@H]1O [Example 2.44.125S., (2S,3R,4S,5R,6R)-2-(((S)-(4,4-Difluoro-1-hydroxycyclohexyl)(3-(trifluoromethyl)pyridin-2-yl)methyl)thio)-6-(hydroxymethyl)-4-(4-(3,4,5-trifluorophenyl)-1H-1,2,3-triazol-1-yl)tetrahydro-2H-pyran-3,5-diol] | 3410 | – | IC50 (human Gal-3 (hGal-3); [1]): 820 nM
6 | Cc1cccnc1[C@H](S[C@@H]1O[C@H](CO)[C@H](O)[C@H](n2cc(-c3cc(F)c(F)c(F)c3)nn2)[C@H]1O)C1(O)CCC(F)(F)CC1 [Example 2.44.126S., (2S,3R,4S,5R,6R)-2-(((S)-(4,4-Difluoro-1-hydroxycyclohexyl)(3-methylpyridin-2-yl)methyl)thio)-6-(hydroxymethyl)-4-(4-(3,4,5-trifluorophenyl)-1H-1,2,3-triazol-1-yl)tetrahydro-2H-pyran-3,5-diol] | 26500 | 3350 | –
7 | CO[C@@H]1[C@@H](n2cc(-c3cc(F)c(F)c(F)c3)nn2)[C@@H](O)[C@@H](CO)O[C@H]1SC(c1nccc(Cl)c1Cl)C1(O)CCC(F)(F)CC1 (stereo partly drawn) [Example 2.44.143.I., (2R,3R,4S,5R,6S)-6-(((3,4-Dichloropyridin-2-yl)(4,4-difluoro-1-hydroxycyclohexyl)methyl)thio)-2-(hydroxymethyl)-5-methoxy-4-(4-(3,4,5-trifluorophenyl)-1H-1,2,3-triazol-1-yl)tetrahydro-2H-pyran-3-ol] | 850 | – | IC50 (human Gal-3 (hGal-3); [3]): 140 nM
8 | CO[C@@H]1[C@@H](n2cc(-c3cc(F)c(Br)c(F)c3)nn2)[C@@H](O)[C@@H](CO)O[C@H]1SC(c1ncccc1C)C1(O)CCC(F)(F)CC1 (stereo partly drawn) [Example 18.44.126.I., (2R,3R,4S,5R,6S)-4-(4-(4-Bromo-3,5-difluorophenyl)-1H-1,2,3-triazol-1-yl)-6-(((4,4-difluoro-1-hydroxycyclohexyl)(3-methylpyridin-2-yl)methyl)thio)-2-(hydroxymethyl)-5-methoxytetrahydro-2H-pyran-3-ol] | 3470 | – | IC50 (human Gal-3 (hGal-3); Table 14, read-out: IC50 (Gal-3 inhibition)): 120 nM
9 | CCC(O)(CC)[C@@H](S[C@@H]1O[C@H](CO)[C@H](O)[C@H](n2cc(-c3cc(F)c(F)c(F)c3)nn2)[C@H]1O)c1conc1C [Example 2.32.120S., (2S,3R,4S,5R,6R)-2-(((S)-2-Ethyl-2-hydroxy-1-(3-methylisoxazol-4-yl)butyl)thio)-6-(hydroxymethyl)-4-(4-(3,4,5-trifluorophenyl)-1H-1,2,3-triazol-1-yl)tetrahydro-2H-pyran-3,5-diol] | 77400 | 11300 | –
10 | CO[C@@H]1[C@@H](n2cc(-c3cc(F)c(F)c(F)c3)nn2)[C@@H](O)[C@@H](CO)O[C@H]1S[C@H](c1nccnc1C)C1(O)CCC(F)(F)CC1 [Example 2.44.129R.I., (2R,3R,4S,5R,6S)-6-(((R)-(4,4-Difluoro-1-hydroxycyclohexyl)(3-methylpyrazin-2-yl)methyl)thio)-2-(hydroxymethyl)-5-methoxy-4-(4-(3,4,5-trifluorophenyl)-1H-1,2,3-triazol-1-yl)tetrahydro-2H-pyran-3-ol [1,3-di-deoxy-1-((4,4-difluoro-1-hydroxy-cyclohexan-1-yl)-(3-(-methyl)pyrazin-2-yl)methyl-(R)-thio)-2-O-methyl-3-[4-(3,4,5-trifluorophenyl)-1H-1,2,3-triazol-1-yl]-b-D-galactopyranoside]] | 300 | – | IC50 (human Gal-3 (hGal-3); [2]): 50 nM
11 | Cc1ccnnc1C(S[C@@H]1O[C@H](CO)[C@H](O)[C@H](n2cc(-c3cc(F)c(F)c(F)c3)nn2)[C@H]1O)C1(O)CCC(F)(F)CC1 (stereo partly drawn) [Example 2.44.135., (2S,3R,4S,5R,6R)-2-(((4,4-Difluoro-1-hydroxycyclohexyl)(4-methylpyridazin-3-yl)methyl)thio)-6-(hydroxymethyl)-4-(4-(3,4,5-trifluorophenyl)-1H-1,2,3-triazol-1-yl)tetrahydro-2H-pyran-3,5-diol] | 450 | 70 | –
12 | CO[C@@H]1[C@@H](n2cc(-c3cc(F)c(F)c(F)c3)nn2)[C@@H](O)[C@@H](CO)O[C@H]1SC(c1nccc(Cl)c1C)C1(O)CCC(F)(F)CC1 (stereo partly drawn) [Example 2.44.141.I., (2R,3R,4S,5R,6S)-6-(((4-Chloro-3-methylpyridin-2-yl)(4,4-difluoro-1-hydroxycyclohexyl)methyl)thio)-2-(hydroxymethyl)-5-methoxy-4-(4-(3,4,5-trifluorophenyl)-1H-1,2,3-triazol-1-yl)tetrahydro-2H-pyran-3-ol] | 860 | – | IC50 (human Gal-3 (hGal-3); [3]): 150 nM
13 | Cc1nccnc1[C@@H](S[C@@H]1O[C@H](CO)[C@H](O)[C@H](n2cc(-c3cc(F)c(F)c(F)c3)nn2)[C@H]1O)C1(O)CCC(F)(F)CC1 [Example 2.44.129R., (2S,3R,4S,5R,6R)-2-(((R)-(4,4-Difluoro-1-hydroxycyclohexyl)(3-methylpyrazin-2-yl)methyl)thio)-6-(hydroxymethyl)-4-(4-(3,4,5-trifluorophenyl)-1H-1,2,3-triazol-1-yl)tetrahydro-2H-pyran-3,5-diol] | 200 | 30 | –
14 | Cc1nc(C)c([C@H](S[C@@H]2O[C@H](CO)[C@H](O)[C@H](n3cc(-c4cc(F)c(F)c(F)c4)nn3)[C@H]2O)C2(O)CCC(F)(F)CC2)nc1C [Example 2.44.119S., (2S,3R,4S,5R,6R)-2-(((S)-(4,4-Difluoro-1-hydroxycyclohexyl)(3,5,6-trimethylpyrazin-2-yl)methyl)thio)-6-(hydroxymethyl)-4-(4-(3,4,5-trifluorophenyl)-1H-1,2,3-triazol-1-yl)tetrahydro-2H-pyran-3,5-diol] | 7210 | – | IC50 (human Gal-3 (hGal-3); [1]): 700 nM
15 | Cc1c(F)cccc1[C@H](S[C@@H]1O[C@H](CO)[C@H](O)[C@H](n2cc(-c3cc(F)c(F)c(F)c3)nn2)[C@H]1O)C(C)(C)O (single isomer, unassigned) [Example 2.31.114R.] | 7240 | 180 | –
16 | CCn1nnc(C)c1[C@H](S[C@@H]1O[C@H](CO)[C@H](O)[C@H](n2cc(-c3cc(F)c(F)c(F)c3)nn2)[C@H]1OC)C1(O)CCC(F)(F)CC1 [Example 2.44.138S.I., (2R,3R,4S,5R,6S)-6-(((S)-(4,4-Difluoro-1-hydroxycyclohexyl)(1-ethyl-4-methyl-1H-1,2,3-triazol-5-yl)methyl)thio)-2-(hydroxymethyl)-5-methoxy-4-(4-(3,4,5-trifluorophenyl)-1H-1,2,3-triazol-1-yl)tetrahydro-2H-pyran-3-ol] | > 100000 | – | IC50 (human Gal-3 (hGal-3); Table 10, 2-OMe-Gal inhibitors, read-out: IC50 (Gal-3 inhibition)): 13200 nM
17 | Cc1conc1[C@@H](S[C@@H]1O[C@H](CO)[C@H](O)[C@H](n2cc(-c3cc(F)c(F)c(F)c3)nn2)[C@H]1O)C1(O)CCS(=O)(=O)CC1 [Example 2.66.120R., 4-((R)-(((2S,3R,4S,5R,6R)-3,5-Dihydroxy-6-(hydroxymethyl)-4-(4-(3,4,5-trifluorophenyl)-1H-1,2,3-triazol-1-yl)tetrahydro-2H-pyran-2-yl)thio)(4-methylisoxazol-3-yl)methyl)-4-hydroxytetrahydro-2H-thiopyran 1,1-dioxide] | 70 | 30 | –
